Data taken from patent publication US7303876B2 (Applera Corporation, priority 2000, dated 2007).
Read-outs that look alike come from different tables or passages of the source.

Tests used:
Liver tissue [1] = assay: Nucleic acid release from liver slices, pH 6, 45° C., 30 minutes, surfactants and additives; conditions: for amount of nucleic acid released in comparison with surfactant without an additive: FIG. 7
Description: To compare CTACl to CTAB, those two surfactants were evaluated in parallel along with hexadecyltrimethylammonium bromide (HDTAB), hexadecyltrimethylammonium chloride (HDTACl), and Sarkosyl. Three additives, phenylglyoxal, acridine orange (e.g., Sigma #A6014), and 1-methyl-2-pyrolidinone, were also evaluated. Phenylglyoxal was tested to determine if it would reduce RNAse activity. […] 1-Methyl-2-pyrrolidinone was tested to see if it would enhance solubility of the sample by various reaction compositions.
Slices of liver-tissue (100-200 mg/sample) were placed into twenty-one Eppendorf tubes. Four hundred microliters of a reaction composition, comprising 100 mM MES, pH 6, 20 mM CaCl2, and 1 mg Proteinase K, was added to each tube.
The tubes were incubated at 45° C. for 30 minutes with mixing (Eppendorf Thermomixer, Model 5436). Surfactant: protease complexes were solubilized using methods the same as or similar to those described in Example 7. Remaining tissue fragments were removed by centrifugation using methods the same as or similar to those described in Example 7. The supernatant was phenol extracted, isopropanol precipitated, and ethanol washed using methods the same as or similar to those described in Example 6.

[2] = Solubility of 1% cationic surfactants in 5M chaotropic salt solutions containing 2% Tween 20
Source text: The solubilities of several cationic surfactants were examined in different chaotropic salt solutions. The cationic surfactants examined were cetyltrimethylammonium bromide (CTAB), cetyltrimethylammonium chloride (CTACl), tetradecyltrimethylammonium bromide (TTAB), tetradecyltrimethylammonium chloride (TTACl), dodecyltrimethylammonium bromide (DTAB), dodecyltrimethylammonium (DTACl), dodecylethyidimethylammonium bromide (DEDTAB), decyltrimethylammonium bromide (D10TAB), and dodecyltriphenylphosphonium bromide (DTPB). Each of the cationic surfactants tested was presented in a 1% concentration. Each of the cationic surfactants was examined in a 5M solution of one of the chaotropic salts containing 2% Tween 20. Each cationic surfactant and salt combination was tested at pH 6 (50 mM MES), pH 8 (50 mM Tris-HCl), and pH 10 (50 mM AMP).

slices of liver = assay: Maceration of liver slices by reaction compositions at 65° C.; conditions: No Proteinase K, 65° C., additive 2%
Description: Initially, a series of reaction compositions were analyzed for their ability to disaggregate a biological sample, e.g., slices of liver. These reaction compositions comprised 100 mM Tris, pH 8.0, 20 mM dithiothreitol (DTT), and optionally,1 mg/ml Proteinase K, surfactants (e.g., cationic, nonionic and anionic detergents), chaotropes, or the additive 1-methyl-2-pyrollidinone (Sigma). Each reaction compositions was placed in a tube with a slice of liver and then incubated at 65° C. The tubes were observed periodically to determine which reaction compositions were able to efficiently macerate the sample.

Liver tissue [3] = assay: Liver tissue disaggregation by 1% surfactant with or without Proteinase K at 60° C.; conditions: 60° C., 1% surfactant
Description: To evaluate the ability of various cationic surfactants to increase the digestion of tissue by Proteinase K, liver slices were digested using reaction compositions including one of the sixteen surfactants (shown in Table 4), both with and without Proteinase K. The reducing agent dithiothreitol (DTT) was included to evaluate the effect of reducing conditions on tissue digestion. […] One of the sixteen surfactants was added to one pair of tubes to yield a final concentration of 1% surfactant. The seventeenth pair of tubes served as non-surfactant controls. One milligram (mg) of Proteinase K was added to one tube of each of the seventeen pairs.
PK=presence or absence of Proteinase K in the reaction composition; Y=Proteinase K was present; N=Proteinase K was not present in the reaction composition.

Liver tissue [4] = assay: Nucleic acid release from liver slices, pH 6, 45° C., 20 minutes, surfactants and additives; conditions: with Proteinase K, FIG. 5
Description: The results from Example 6 indicate that there was significant nuclease activity present in the sample. To reduce the nucleolytic activity of endogenous RNAses, the pH of the reaction composition was lowered to approximately 6.0 and the incubation temperature was decreased to 45° C. Several additives, including phenylglyoxal (Aldrich #14243-3), 1-methyl-2-pyrolidinone, RNA Later (Ambion, #7020), and Streck Tissue Fixitive (Streck Laboratories, #265138) were also tested to evaluate their effect on endogenous RNAse activity in these reaction compositions. Phenylglyoxal is known to reduce ribonuclease activity (see Takahashi, The Structure And Funtion Of Ribonuclease T1. XI. Modification Of The Single Arginine Residue In Ribonuclease T1 By Phenylglyoxal And Glyoxal, J. Biochem (Japan) 68:659-664, 1970). The product literature for RNA Later claims that the reagent stabilizes RNA in tissue and Streck Tissue Fixative is believed to preserve the integrity of tissue.
Slices of liver tissue (100-200 mg/sample) were placed into nineteen Eppendorf tubes. Four hundred microliters of a reaction composition comprising 100 mM MES (Sigma #M-5287), pH 6, 20 mM CaCl2, and 1 mg Proteinase K, was added to each tube.
The tubes were incubated at 45° C. for 20 minutes with mixing (Eppendorf Thermomixer, Model 5436). […] Undigested tissue fragments were removed by centrifugation using the methods the same as or similar to those discussed in Example 6. The supernatant was phenol extracted (saturated with 10 mM Tris HCl , pH 8, 1 mM EDTA; Sigma #P-4557), isopropanol precipitated (Aldrich #19076-4), and ethanol washed using methods the same as or similar to those described in Example 6.

[5] = 5M chaotropic salts, 2% Tween 20

For CCCCCCCCCCCCCCCC[N+](C)(C)C.[Cl-] [HDTACl, hexadecyltrimethylammonium chloride], the “high molecular weight nucleic acid by gel electrophoresis” value (Liver tissue [1]; with 1-methyl-2-pyrolidinone) was “High molecular weight nucleic acid was also observed”.

In the case of CCCCCCCCCC[N+](C)(C)C.[Br-] [Sample D10TAB, decyltrimethylammonium bromide], the “relative solubility in chaotropic salt solutions (in words)” value (from here on “relative solubility”) [2] is reported as “more soluble than larger surfactants”.

With CN1CCCC1=O [1-methyl 2-pyrrolidinone, 1-methyl-2-pyrolidinone] the “maceration of liver slice” value (slices of liver; 16-24 hr) was 0%, the “amount of nucleic acid released in comparison with surfactant without an additive” value (Liver tissue [1]; 10% additive with 1% CTACl) was “greater” and the “amount of nucleic acid released in comparison with surfactant without an additive” value (Liver tissue [1]; 10% additive with 1% HDTAB) was “less”.

In the case of CCCCCCCCCCCCCCCC[N+](C)(C)C.[Br-] [Hexadecyltrimethylammonium bromide, hexadecyltrimethylammonium bromide], the “high molecular weight nucleic acid by gel electrophoresis” value (Liver tissue [1]; all reaction compositions containing the surfactant, FIG. 8) is reported as “high molecular weight nucleic acid was apparent”, the “Tissue Disaggregation” value (Liver tissue [3]; Fifteen Minutes Incubation, Proteinase K not present (N)) is reported as 0 and the “Tissue Disaggregation” value (Liver tissue [3]; Fifteen Minutes Incubation, Proteinase K present (Y)) is reported as 0. For the same compound, the “Tissue Disaggregation” value (Liver tissue [3]; Fifty-Two Minutes Incubation, Proteinase K not present (N)) was 0 and the “Tissue Disaggregation” value (Liver tissue [3]; Fifty-Two Minutes Incubation, Proteinase K present (Y)) was 1.

With CCCCCCCCCCCC[N+](C)(C)C.[Cl-] [DTACl, dodecyltrimethylammonium chloride] the “relative solubility” value [2, 5] was “more soluble than larger surfactants”.

With CCCCCCCCCCCC[P+](c1ccccc1)(c1ccccc1)c1ccccc1.[Br-] [DTPB, dodecyltriphenylphosphonium bromide] the “relative solubility” value [2] was “more soluble than larger surfactants”.

In the case of CCCCCCCCCCCC(=O)N(C)CC(=O)[O-].[Na+] [Sarkosyl, sodium N-lauroylsacrosinate], the “release of A260 absorbing material from the sample” value (Liver tissue [4]) is reported as “released A260 absorbing material” and the “maceration of liver slice” value (slices of liver; 72 hr) is reported as 0%.

For CCCCCCCCCCCC[N+](C)(C)CC.[Br-] [DEDTAB, dodecylethyldimethylammonium bromide], the “relative solubility” value [2, 5] was “more soluble than larger surfactants”.
